Measurements from patent US8946261B2, “Substituted 1, 2, 3, 4-tetrahydroquinolin-7-yl carbamates as acetylcholinesterase inhibitors for treatment of Alzheimer's disease” (priority 2011, dated 2015).
Where “and” joins values, the source holds several entries; their conditions need not be identical. Identical values can stand only once. Entries after “also recorded” stand apart in the source; their conditions may differ.

Tests used:
[1] = target: T1, Acetylcholinesterase (AChE) (Mus musculus, UniProt P21836); experiment: Acetylcholinesterase (AChE) assay in brain (in vitro), Ellman method; type: biochemical, Swiss albino mice
T1 construct: A 10% (w/v) homogenate of brain was prepared; from tissue; host or cells: whole brain of adult Swiss albino mice; supernatant (100,000 g) of the 1% Triton X-100 treated homogenate
T1 sequence (P21836 32-614): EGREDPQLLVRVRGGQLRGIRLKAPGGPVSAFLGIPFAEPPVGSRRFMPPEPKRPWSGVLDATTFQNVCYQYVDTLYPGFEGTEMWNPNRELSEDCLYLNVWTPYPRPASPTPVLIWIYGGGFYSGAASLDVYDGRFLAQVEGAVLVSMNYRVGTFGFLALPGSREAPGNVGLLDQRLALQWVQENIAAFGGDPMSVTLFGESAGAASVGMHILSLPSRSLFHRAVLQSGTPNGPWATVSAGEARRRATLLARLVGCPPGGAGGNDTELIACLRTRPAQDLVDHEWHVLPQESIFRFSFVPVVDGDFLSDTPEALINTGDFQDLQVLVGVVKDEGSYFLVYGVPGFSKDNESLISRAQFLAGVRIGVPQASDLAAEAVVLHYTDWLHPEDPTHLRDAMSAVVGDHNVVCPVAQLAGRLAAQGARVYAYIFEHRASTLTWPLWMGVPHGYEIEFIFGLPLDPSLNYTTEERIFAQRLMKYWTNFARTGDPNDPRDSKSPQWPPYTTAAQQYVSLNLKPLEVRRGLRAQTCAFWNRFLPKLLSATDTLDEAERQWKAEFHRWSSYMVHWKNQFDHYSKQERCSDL
Protocol: Acetylcholinesterase (AChE) Assay in Brain (In Vitro)
The mice were perfused under mild ether anesthesia through heart with ice cooled normal saline (0.9% NaCl) to remove blood-born cholinesterase from the brain. After perfusion the whole brain was taken out. A 10% (w/v) homogenate of brain was prepared first by homogenizing in an Ultra-Turrax T25 homogenizer at a speed of 9500 rpm thrice giving intervals for few seconds in between the runs, with sodium phosphate buffer (0.03 M, pH-7)).
The brain homogenate in volume of 500 μl was mixed with 1% Triton X-100 (1% w/v in 0.03M sodium phosphate buffer, pH-7) and centrifuged at 100,000 g at 4° C. in a Beckman Ultracentrifuge (LE 80, USA), using a fixed angle rotor (80 ti) for 60 min. Supernatant was collected and stored at 4° C. for acetylcholinesterase estimation.
The assay for each sample was run in triplicate and each experiment was performed twice.
The specific activity of AChE is expressed in μM/min/mg of protein.
The test substance (dissolved in ethanol) was incubated with enzyme source in different concentrations ([…]) for 30 min at 37° C. prior to obtain kinetic profile of AChE activity. […] The AChE inhibitory activity was calculated on the basis of % decrease in AChE activity from control values i.e. AChE activity without incubation with any standard or test drug.
The results are expressed as mean±S.E.M. Statistical analysis of passive avoidance values were performed by t-test. The IC50 value was calculated by non linear regression method using GraphPad Prism software.

[2] = test system: scopolamine induced amnesia in mice; experiment: Passive avoidance test, scopolamine induced amnesia (in vivo); parameters: species or system Swiss albino male mice; conditions: oral 3.75, 7.5 and 15 mg/kg 1 hr prior to 1st trial, scopolamine 3 mg/kg IP, FIG. 3
Protocol: Passive avoidance test is widely used as experimental model to assess learning and memory functions in rodents. Scopolamine induced impairment in passive avoidance (in vivo) and inhibition of acetylcholinesterase (in vitro) in rodents are commonly employed screening tests to predict potential of a compound as acetylcholinesterase inhibitor and anti-amnesic drug (Das et al., 2002).
[…]. Mice were kept in standard housing condition with 12 h light and dark cycle. The food and water were available ad libitum.
The passive avoidance test was carried out as described by Tota et al., 2009. The mice were subjected to the passive avoidance test by placing in a compartment with light at intensity of 8 [Scale from 0 to 10 (brightest)] in a computerized shuttle box with a software programme PACS 30 (Columbus Instruments, Ohio, USA).
The light compartment was isolated from the dark compartment by an automated guillotine door. After an acclimatization period of 30 s, the guillotine door was opened and closed automatically after entry of the mouse into the dark compartment. The subject received a low-intensity foot shock (0.5 mA; 10 s) in the dark compartment. Infrared sensors monitored the transfer of the animal from one compartment to another which was recorded as transfer latency time (TLT) in seconds. […]

[3] = test system: Swiss albino male mice; experiment: Gross behavioral study; conditions: 125 mg/kg oral dose, 125 mg/kg
[4] = read-out: % Inhibition of AChE enzyme

In the case of `CN(C)C(=O)Oc1ccc2c(c1)N(Cc1ccccc1)CCC2` [Compound 8k, 1-benzyl-1,2,3,4-tetrahydroquinolin-7-yl dimethylcarbamate], the IC50 [1] is reported as 0.099 ± 0.003 µM, the “AChE inhibitory activity compared to Tacrine” value ([1]; comparison with Tacrine) is reported as “almost equal or even slightly better” and the “AChE inhibitory activity, fold better compared to the drug rivastigmine” value ([1]; fold better than rivastigmine) is reported as 12 fold and 10 fold. For the same compound, the inhibition at 10 µM [1, 4] was 95.5%, the inhibition at 100 µM [1, 4] was 98% and the “improvement in learning (transfer latency time, passive avoidance)” value [2] was “shown potential towards the improvement in learning of mice and almost comparable to the drug Rivastigmine and Tacrine”. The tolerability [3] was “Well tolerated” and the “cholinergic symptoms / side effects” value ([3]; upto 24 hrs of drug administration) was “no cholinergic symptoms and mortality was observed; also recorded: free from any observable side peripheral side effect; also recorded: No cholinergic symp-”.
